Measurements taken from paper PMC4664946, “The standalone aminopeptidase PepN catalyzes the maturation of blasticidin S from leucylblasticidin S” (Scientific Reports, 2015).

Tests used:
[1] = target: T1, PepN (Escherichia coli, UniProt P04825); test: HPLC (UV […] nm) of hydrolysis to blasticidin S; type: biochemical; conditions: 30 °C; 1 μM LBS overnight; pH 5 to 9 tested
T1 sequence (P04825 2-870): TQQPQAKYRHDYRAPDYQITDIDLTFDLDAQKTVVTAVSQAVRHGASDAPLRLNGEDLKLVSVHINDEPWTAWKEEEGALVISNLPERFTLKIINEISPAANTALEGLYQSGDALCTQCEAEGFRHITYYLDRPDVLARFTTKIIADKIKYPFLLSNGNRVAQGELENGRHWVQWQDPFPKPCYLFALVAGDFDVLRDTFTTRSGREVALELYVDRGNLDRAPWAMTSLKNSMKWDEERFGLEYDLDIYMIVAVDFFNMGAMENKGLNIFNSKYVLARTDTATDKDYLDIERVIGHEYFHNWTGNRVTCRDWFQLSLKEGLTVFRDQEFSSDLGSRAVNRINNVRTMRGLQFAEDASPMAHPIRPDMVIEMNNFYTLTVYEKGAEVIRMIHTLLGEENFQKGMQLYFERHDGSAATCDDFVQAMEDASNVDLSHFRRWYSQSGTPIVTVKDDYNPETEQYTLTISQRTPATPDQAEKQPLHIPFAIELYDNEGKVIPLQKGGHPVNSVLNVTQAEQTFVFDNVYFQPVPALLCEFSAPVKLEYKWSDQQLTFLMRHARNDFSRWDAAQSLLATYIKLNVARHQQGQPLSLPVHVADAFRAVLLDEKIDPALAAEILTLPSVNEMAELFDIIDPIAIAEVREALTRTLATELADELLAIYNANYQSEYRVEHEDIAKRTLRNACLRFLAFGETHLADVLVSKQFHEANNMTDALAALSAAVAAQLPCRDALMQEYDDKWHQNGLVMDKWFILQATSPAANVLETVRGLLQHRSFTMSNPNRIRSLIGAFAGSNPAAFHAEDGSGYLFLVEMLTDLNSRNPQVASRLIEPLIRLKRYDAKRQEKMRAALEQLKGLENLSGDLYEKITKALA

[2] = target: T2, PepN1 (Streptomyces lividans, UniProt Q11010); test: HPLC (UV […] nm) of hydrolysis to blasticidin S; type: biochemical; conditions: pH 5 to 9 tested; 30 °C; hydrolysis of the beta-amide bond to leucine
T2 construct: gene pepN; closely located to PepN2 gene
T2 sequence (Q11010 1-857): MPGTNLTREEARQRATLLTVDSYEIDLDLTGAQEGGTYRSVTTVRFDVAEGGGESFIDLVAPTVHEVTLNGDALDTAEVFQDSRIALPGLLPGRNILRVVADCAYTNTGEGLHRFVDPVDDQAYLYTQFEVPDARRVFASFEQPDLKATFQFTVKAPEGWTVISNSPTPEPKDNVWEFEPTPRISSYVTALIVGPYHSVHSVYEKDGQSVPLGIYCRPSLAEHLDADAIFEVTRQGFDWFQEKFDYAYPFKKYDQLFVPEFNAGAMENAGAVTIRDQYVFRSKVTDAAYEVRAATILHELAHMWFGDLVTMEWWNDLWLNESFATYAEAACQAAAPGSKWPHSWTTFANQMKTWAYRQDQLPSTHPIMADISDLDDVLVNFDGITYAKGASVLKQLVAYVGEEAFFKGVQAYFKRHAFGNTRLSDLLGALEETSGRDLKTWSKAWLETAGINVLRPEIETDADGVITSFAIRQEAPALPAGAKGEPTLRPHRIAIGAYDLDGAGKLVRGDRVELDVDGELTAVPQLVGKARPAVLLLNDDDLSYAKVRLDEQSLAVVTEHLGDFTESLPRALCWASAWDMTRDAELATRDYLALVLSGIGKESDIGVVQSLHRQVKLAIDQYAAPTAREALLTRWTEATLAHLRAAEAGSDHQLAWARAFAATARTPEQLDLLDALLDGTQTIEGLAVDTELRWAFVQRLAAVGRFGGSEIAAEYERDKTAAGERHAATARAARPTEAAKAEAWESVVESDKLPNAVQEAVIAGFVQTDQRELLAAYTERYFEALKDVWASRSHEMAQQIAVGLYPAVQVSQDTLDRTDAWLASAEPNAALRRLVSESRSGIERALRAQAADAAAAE

CC(C)C[C@H](N)C(=O)N[C@@H](CCN(C)C(=N)N)CC(=O)N[C@H]1C=C[C@H](n2ccc(N)nc2=O)O[C@@H]1C(=O)O [LBS, leucylblasticidin S]
HPLC (UV 272 nm) of hydrolysis to blasticidin S [1]: PepN and PepN1 exhibited similar LBS hydrolyzing efficiency | HPLC (UV 272 nm) of hydrolysis to blasticidin S [2]: PepN and PepN1 exhibited similar LBS hydrolyzing efficiency
